These results are taken from ChEMBL document CHEMBL3243928, “N-(2,4,5-Trihydroxyphenehtyl)normetazocine, a potential irreversible inhibitor of the narcotic receptor” (J Med Chem, 1977).

The source made the active and inactive calls. The rule behind the calls is not given here. A value given as a limit tells only on which side of the number the result lay.

In data set [1] the test system is Mus musculus. The data set is described as follows: Inhibition of norepinephrine release in sc dosed mouse heart administered 60 mins before [3H]-norepinephrine challenge. Type of data set: functional.
Data set [2] has as its system Mus musculus. Put plainly: Ratio of morphine to compound for analgesic activity in ip dosed mouse. The format is functional.
Data set [3] addresses Opioid receptor (Rattus norvegicus) (UniProt P33533+P34975+P33535). Put plainly: Ratio of morphine to compound for binding affinity to rat brain opiate receptor.
Data set [4] concerns NG108-15. Put plainly: Antagonist activity at opiate receptor in mouse/rat NG108-15 cells assessed as inhibition of adenylate cyclase activity at 2 x 10^-4 M after 3 mins. The format is cell-based.
Data set [5] has as its system Mus musculus. Put plainly: Toxicity in mouse at 80 mg/kg, iv. The format is organism-based. Details: dose 80 mg/kg, route intravenous. To be noted: in vivo.
Data set [6] deals with Mus musculus. The data set is described as follows: Antinociceptive activity in mouse at 50 mg/kg, sc by hot-plate assay. Details: dose 50 mg/kg. Type of data set: functional, organism-based. Background: In hot-plate and tail-flick tests a longer latency is read as antinociception.
For data set [7], the system named is NG108-15. Put plainly: Antagonist activity at opiate receptor in mouse/rat NG108-15 cells assessed as inhibition of adenylate cyclase activity at 10^-3 M after 3 mins. Type of data set: cell-based.
The test system of data set [8] is Mus musculus. The data set is described as follows: Inhibition of norepinephrine release in mouse heart at >150 umol/kg, sc administered 60 mins before [3H]-norepinephrine challenge. The format is functional, organism-based.
Data set [9] relates to NG108-15. Put plainly: Antagonist activity at opiate receptor in mouse/rat NG108-15 cells assessed as inhibition of adenylate cyclase activity at 10^-7 M after 3 mins. Type of data set: cell-based.
Data set [10] has as its system Mus musculus. The data set is described as follows: Toxicity in mouse at 5 mg/kg, iv. Type of data set: organism-based. Set-up: dose 5 mg/kg, route intravenous. To be noted: in vivo.
In data set [11] the test system is Mus musculus. The data set is described as follows: Toxicity in iv dosed mouse. Conditions: in vivo. The format is organism-based.
The mark [12] stands for this setting: Mus musculus, sc, read-out: ED50.

Chain of Opioid receptor (Rattus norvegicus) (P33533 whole entry, looked up): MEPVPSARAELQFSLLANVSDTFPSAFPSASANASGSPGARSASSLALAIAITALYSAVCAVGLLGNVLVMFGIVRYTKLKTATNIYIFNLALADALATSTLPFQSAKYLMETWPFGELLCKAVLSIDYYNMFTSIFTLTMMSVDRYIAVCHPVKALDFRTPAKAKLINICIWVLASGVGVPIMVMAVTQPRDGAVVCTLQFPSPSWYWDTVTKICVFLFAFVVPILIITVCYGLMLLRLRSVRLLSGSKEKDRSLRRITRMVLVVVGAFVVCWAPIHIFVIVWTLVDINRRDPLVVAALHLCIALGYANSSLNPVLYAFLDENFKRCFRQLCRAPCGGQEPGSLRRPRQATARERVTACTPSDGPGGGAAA
Chain of Opioid receptor (Rattus norvegicus) (P33535 whole entry, looked up): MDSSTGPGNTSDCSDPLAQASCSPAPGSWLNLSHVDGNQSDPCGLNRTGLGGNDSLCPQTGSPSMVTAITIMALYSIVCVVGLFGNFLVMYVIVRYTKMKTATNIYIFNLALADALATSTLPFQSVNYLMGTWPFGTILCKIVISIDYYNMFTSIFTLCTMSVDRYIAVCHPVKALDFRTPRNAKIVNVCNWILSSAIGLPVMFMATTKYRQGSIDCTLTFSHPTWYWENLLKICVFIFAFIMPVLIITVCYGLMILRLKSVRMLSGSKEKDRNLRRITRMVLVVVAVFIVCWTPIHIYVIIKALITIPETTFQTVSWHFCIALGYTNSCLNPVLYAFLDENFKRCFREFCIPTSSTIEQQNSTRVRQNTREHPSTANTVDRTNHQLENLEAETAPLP
Chain of Opioid receptor (Rattus norvegicus) (P34975 whole entry, looked up): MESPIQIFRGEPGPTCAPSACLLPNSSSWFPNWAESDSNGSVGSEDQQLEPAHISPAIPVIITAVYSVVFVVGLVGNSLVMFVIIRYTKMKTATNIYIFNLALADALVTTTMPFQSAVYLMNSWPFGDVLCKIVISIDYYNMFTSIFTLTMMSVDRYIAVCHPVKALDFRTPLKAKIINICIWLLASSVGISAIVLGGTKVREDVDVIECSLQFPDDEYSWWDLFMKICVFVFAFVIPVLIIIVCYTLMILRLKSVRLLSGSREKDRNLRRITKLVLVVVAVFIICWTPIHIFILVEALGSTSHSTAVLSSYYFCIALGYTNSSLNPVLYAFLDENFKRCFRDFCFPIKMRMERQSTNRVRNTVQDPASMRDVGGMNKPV

What is called ED50 is the dose at which the effect has come halfway, by size or by number of responders. Turning to `NCCc1cc(O)c(O)cc1O` [OXIDOPAMINE], in data set [1] (setting [12]), the median effective dose (ED50) was 6.8 µmol/kg.

Consider `CC(N)Cc1ccc(O)cc1` (stereo not drawn) [HYDROXYAMPHETAMINE], for which, in data set [1] (setting [12]), the ED50 stood at 13 µmol/kg. Consider `COc1ccc(CCN2CCC3(C)c4cc(O)ccc4CC2C3C)cc1` (stereo not drawn), for which the Ratio in data set [2] was 8. Turning to `CN(C)CCc1ccc(O)cc1` [HORDENINE], the ED50 in [1] (setting [12]) is above 400 µmol/kg.

On to `CC1C2Cc3ccc(O)cc3C1(C)CCN2CCc1ccc(N)cc1` (stereo not drawn), for which the Ratio in data set [2] was 20.

`Nc1ccc(CCN2CC[C@]34CCCC[C@H]3[C@H]2Cc2ccc(O)cc24)cc1`: the Ratio in data set [3] was above 10. Consider `CC1C2Cc3ccc(O)cc3C1(C)CCN2CCc1cc(O)c(O)cc1O.I` (stereo not drawn), for which the inhibition entry in [4] and in data set [8] was “inactive” throughout. Besides, the Activity result in data set [5] is “Non-toxic”. The result in data set [6] was Active. Also, in data set [7], the inhibition entry was “Active”. The same compound came in with an ED50 in [1] of 0 µmol/kg. For `CC1C2Cc3ccc(O)cc3C1(C)CCN2CCc1ccccc1` (stereo not drawn) [PHENAZOCINE], the Ratio in data set [2] was found to be 10. Take `CN1CC[C@]23c4c5ccc(O)c4O[C@H]2[C@@H](O)C=C[C@H]3[C@H]1C5`: in [9], the inhibition result is “Active”. As for `CC(N)Cc1cc(O)c(O)cc1O` (stereo not drawn), the ED50 in [1] (setting [12]) is 4.2 µmol/kg. Take `C[C@H]1C2Cc3ccc(O)cc3C1(C)CCN2` (stereo partly drawn): the LD100 in data set [10] was found to be 10 mg/kg. In [11], the Activity result was “Toxic”. `COC(=O)[C@H]1[C@@H](OC(=O)c2ccccc2)C[C@@H]2CC[C@H]1N2C` [COCAINE] showed an ED50 in data set [1] of 0 µmol/kg.
